In one test the target is T1, NHE-2 (Rattus norvegicus, UniProt P48763).
T1 sequence (P48763 1-813): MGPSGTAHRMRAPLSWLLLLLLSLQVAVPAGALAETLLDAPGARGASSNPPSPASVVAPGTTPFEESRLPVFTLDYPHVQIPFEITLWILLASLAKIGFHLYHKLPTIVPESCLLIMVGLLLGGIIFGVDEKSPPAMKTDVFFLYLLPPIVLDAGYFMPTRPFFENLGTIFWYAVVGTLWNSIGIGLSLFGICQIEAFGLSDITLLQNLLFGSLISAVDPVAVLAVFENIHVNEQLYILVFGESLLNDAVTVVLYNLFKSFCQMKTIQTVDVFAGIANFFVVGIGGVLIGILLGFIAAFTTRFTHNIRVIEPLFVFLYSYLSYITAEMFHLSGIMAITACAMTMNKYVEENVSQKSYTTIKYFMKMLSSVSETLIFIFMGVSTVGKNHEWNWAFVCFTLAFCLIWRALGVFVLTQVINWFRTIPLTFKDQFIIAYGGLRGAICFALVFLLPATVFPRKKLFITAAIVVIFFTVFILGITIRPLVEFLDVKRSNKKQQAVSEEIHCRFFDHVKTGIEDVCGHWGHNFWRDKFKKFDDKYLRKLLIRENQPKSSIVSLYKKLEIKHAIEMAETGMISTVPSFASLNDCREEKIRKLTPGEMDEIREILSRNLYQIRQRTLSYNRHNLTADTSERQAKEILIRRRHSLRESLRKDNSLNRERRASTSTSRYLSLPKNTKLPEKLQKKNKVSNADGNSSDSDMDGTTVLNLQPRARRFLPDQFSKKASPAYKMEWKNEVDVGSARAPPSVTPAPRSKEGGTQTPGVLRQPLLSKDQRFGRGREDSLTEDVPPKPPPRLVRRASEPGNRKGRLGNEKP
The following applies: * = from rat; read-out: IC50 or Ki, NHE-2; cited from earlier work.

The next test concerns the target NHE-3 (Rattus norvegicus, UniProt P26433). Particulars: * = from rat; read-out: IC50 or Ki, NHE-3; cited from earlier work.
In a further test the target is NHE-1 (Rattus norvegicus, UniProt P26431). Particulars: * = from rat; read-out: IC50 or Ki, NHE-1; cited from earlier work.
Sequence of NHE-1 (P26431 whole entry): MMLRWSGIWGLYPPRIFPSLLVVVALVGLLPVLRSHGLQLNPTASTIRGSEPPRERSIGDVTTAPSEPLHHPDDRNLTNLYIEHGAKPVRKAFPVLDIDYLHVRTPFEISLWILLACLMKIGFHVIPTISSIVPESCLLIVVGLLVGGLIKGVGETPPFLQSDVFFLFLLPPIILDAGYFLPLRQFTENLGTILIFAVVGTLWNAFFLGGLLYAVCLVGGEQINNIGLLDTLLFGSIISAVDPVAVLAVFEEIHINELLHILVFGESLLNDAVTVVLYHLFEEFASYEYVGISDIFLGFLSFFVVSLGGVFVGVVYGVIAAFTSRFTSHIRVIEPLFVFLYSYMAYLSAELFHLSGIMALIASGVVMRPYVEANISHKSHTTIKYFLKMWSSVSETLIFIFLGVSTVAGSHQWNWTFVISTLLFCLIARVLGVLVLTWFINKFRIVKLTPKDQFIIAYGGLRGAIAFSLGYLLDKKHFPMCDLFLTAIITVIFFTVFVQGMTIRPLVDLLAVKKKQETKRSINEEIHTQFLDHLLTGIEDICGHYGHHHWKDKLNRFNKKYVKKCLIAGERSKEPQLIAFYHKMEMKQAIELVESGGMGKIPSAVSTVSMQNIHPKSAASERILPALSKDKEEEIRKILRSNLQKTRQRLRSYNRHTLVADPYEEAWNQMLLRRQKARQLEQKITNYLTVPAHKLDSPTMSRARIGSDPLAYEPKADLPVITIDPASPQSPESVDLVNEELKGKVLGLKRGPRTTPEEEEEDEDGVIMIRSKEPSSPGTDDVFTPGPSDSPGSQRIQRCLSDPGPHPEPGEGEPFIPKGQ
In another test the target is T2, NHE-5 (Homo sapiens, UniProt Q14940).
T2 sequence (Q14940 1-896): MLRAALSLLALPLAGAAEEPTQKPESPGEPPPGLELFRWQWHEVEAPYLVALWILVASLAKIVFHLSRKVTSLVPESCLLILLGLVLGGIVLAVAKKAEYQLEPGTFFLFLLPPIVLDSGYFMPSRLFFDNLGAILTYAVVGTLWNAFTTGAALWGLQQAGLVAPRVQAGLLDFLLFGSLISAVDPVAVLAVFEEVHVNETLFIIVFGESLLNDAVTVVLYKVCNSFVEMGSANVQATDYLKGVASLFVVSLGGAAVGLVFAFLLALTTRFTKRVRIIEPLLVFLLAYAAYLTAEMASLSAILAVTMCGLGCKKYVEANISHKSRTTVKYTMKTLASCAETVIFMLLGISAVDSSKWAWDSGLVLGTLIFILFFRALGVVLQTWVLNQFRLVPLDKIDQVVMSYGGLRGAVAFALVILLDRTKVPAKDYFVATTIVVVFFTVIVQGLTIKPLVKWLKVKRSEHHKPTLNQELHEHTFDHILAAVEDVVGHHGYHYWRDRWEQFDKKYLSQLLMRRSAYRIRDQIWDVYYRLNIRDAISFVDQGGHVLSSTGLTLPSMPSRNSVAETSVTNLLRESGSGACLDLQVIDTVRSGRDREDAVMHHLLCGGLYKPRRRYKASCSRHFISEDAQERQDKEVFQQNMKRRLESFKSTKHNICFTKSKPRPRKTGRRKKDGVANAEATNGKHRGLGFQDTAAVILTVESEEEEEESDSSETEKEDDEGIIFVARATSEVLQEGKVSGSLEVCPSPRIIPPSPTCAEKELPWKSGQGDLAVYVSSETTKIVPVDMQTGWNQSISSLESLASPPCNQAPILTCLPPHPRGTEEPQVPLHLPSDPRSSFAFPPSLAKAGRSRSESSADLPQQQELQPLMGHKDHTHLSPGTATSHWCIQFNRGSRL
The following applies: read-out: IC50 or Ki, NHE-5; cited from earlier work.

Test [1] concerns acute stress-induced visceral hypersensitivity. The experiment in a line: Effect on acute stress-induced visceral hypersensitivity (colorectal distension). It counts as in vivo, rat. Particulars: female Wistar rats, partial restraint stress, 10 mg/kg oral, at 45 and 60 mm Hg, p<0.05 (FIG. 6). As for the experimental part:
Female Wistar rats weighing 220-250 g were prepared for electromyography. The animals were anaesthetized, and three pairs of nichrome wire electrodes were implanted bilaterally in the striated muscles at 3 cm laterally from the midline. The free ends of electrodes were exteriorised on the back of the neck and protected by a glass tube attached to the skin. Electromyographic recordings (EMG) were begun 5 days after surgery. The electrical activity of the abdominal striated muscles were recorded with an electromyograph machine (Mini VIII; Alvar, Paris, France) using a short time constant (0.03 sec.) to remove low-frequency signals (<3 Hz).
Partial restraint stress (PRS), a relatively mild stress, was performed as follows. Briefly, animals were lightly anaesthetized with ethyl-ether, and their […], upper forelimbs and thoracic trunk were wrapped in a confining harness of paper tape to restrict, but not prevent their body movements and placed in their home cage for 2 hours. Control sham-stress animals were anaesthetized but not wrapped. […]
Colorectal distension (CRD) was accomplished as follows: rats were placed in a plastic tunnel, where they were not allowed to move or escape daily during 3 consecutive days (3 h/day) before any CRD. […] For each parameter studied (the number of abdominal contractions for each 5-min period during rectal distension) data is expressed as mean±SEM. […]

The test system of a further test is fecal water content. Briefly: Pharmacodynamic model: effect of test compounds on fecal water content. It counts as in vivo, rat. The following applies: female Sprague Dawley rats, 3 mg/kg oral, feces collected 16 hrs. The procedure: Normal female Sprague Dawlev rats (Charles-River laboratories international, Hollister, Calif.), 7-8 weeks old with body weight 175-200 g were acclimated for at least 3 days before proceeding to experiments. The animals were provided food (Harlan Teklad 2018c) and water ad lib, through the experiment. Animals were randomly grouped with 6 rats per group.
The experiments were initiated by orally dosing test compounds at 3 mg/kg in volume of 10 ml/kg. Rats from control group were gavaged with the same volume of vehicle (water). After dosing, rats were placed in metabolic cages for 16 hrs (overnight). Food and water consumption were monitored. After sixteen hours, feces and urine were collected. The percent of fecal water was measured by weighing fecal samples before and after drying.
Representative data of % fecal water content are shown in Table 12 (data are expressed as means, with 6 animals per data point). The differences between control and treated groups were evaluated by one way ANOVA with Dunnett post tests. Results are significant if p<0.05.

Test [2] has as its system fecal water content, urinary sodium, fecal form. The experiment in a line: Pharmacodynamic model: addition of a fluid absorbing polymer (1% Psyllium) to chow. It counts as in vivo, rat. Particulars: rats, chow with 1% Psyllium (FIGS. 5A-5C). From the text:
Rats were monitored for fecal water content as in Example 13, with the addition of a second group that were fed chow with the addition of 1% Psyllium to their diet. In addition to fecal water and urinary sodium, fecal form was monitored on a scale of 1-5, where 1 is a normal pellet, 3 indicates soft and unformed pellets, and 5 indicates watery feces.

Sequence of NHE-3 (P26433 29-831): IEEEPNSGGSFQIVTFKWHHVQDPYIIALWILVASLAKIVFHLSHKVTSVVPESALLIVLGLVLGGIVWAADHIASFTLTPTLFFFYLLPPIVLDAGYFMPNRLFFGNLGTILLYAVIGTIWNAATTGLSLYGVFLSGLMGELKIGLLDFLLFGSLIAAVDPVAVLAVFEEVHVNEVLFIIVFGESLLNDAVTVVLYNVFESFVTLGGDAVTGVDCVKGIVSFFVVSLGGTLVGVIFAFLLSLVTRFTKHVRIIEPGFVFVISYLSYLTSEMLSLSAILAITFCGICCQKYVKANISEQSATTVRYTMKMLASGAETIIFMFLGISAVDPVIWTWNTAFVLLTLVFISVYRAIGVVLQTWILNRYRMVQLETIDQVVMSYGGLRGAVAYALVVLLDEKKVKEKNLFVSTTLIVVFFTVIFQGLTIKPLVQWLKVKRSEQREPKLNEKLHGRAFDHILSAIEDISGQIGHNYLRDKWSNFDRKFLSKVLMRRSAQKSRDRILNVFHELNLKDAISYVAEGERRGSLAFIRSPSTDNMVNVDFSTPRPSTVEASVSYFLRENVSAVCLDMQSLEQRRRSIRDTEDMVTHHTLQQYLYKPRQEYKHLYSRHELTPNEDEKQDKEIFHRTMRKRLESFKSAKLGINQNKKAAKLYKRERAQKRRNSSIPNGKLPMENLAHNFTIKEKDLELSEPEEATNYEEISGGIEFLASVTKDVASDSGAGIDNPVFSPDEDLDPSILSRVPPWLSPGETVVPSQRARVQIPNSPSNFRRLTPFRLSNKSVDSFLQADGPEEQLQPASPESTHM

For orientation: IC50 means the concentration that gives 50% inhibition. Take `CCN(c1nc(N)c(C(=O)NC(=N)N)nc1Cl)C(C)C` [EIPA, ethyl isopropyl amiloride]: at NHE-2, the IC50 is 80 nM.

On to `N=C(N)NC(=O)c1nc(Cl)c(N2CCCCCC2)nc1N` [HMA], for which the IC50 is 2400 nM on NHE-3, 13 nM on NHE-1 and 370 nM at NHE-5.

Regarding `CN1Cc2c(Cl)cc(Cl)cc2C(c2cccc(S(=O)(=O)NCCOCCOCCOCCNC(=O)C(O)C(O)C(=O)NCCOCCOCCOCCNS(=O)(=O)c3cccc(C4CN(C)Cc5c(Cl)cc(Cl)cc54)c3)c2)C1` (single isomer, unassigned) [Example 224, N1,N4-bis(2-(2-(2-(2-(3-((S or R)-6,8-dichloro-2-methyl-1,2,3,4-tetrahydroisoquinolin-4-yl)phenylsulfonamido)ethoxy)ethoxy)ethoxy)ethyl)-2,3-dihydroxysuccinamide], the “visceral hypersensitivity to distension (abdominal contractions)” value in test [1] is recorded as “reduces visceral hypersensitivity to distension”. Moreover, the “% Fecal water (% of control)” value in the test with fecal water content is on record as 125% of control. Further, in the test with fecal water content (mean of 6), the “% Fecal water” value amounted to 65%. For the same molecule, in test [2], the “ability to increase fecal water content or decrease urinary sodium with Psyllium in the diet” value is “without impacting the ability”.

These data come from US20190374533A1, “COMPOUNDS AND METHODS FOR INHIBITING NHE-MEDIATED ANTIPORT IN THE TREATMENT OF DISORDERS ASSOCIATED WITH FLUID RETENTION OR SALT OVERLOAD AND GASTROINTESTINAL TRACT DISORDERS” (Ardelyx, Inc., priority 2008, published 2019).
